In the NIST ThermoML archive (doi:10.1021/acs.jced.6b00430):

Assay: xn = mol fraction of the nth substance listed
Conditions: 100 kPa, Liquid; for viscosity: Capillary tube (Ostwald / Ubbelohde) method; for mass density: Vibrating tube method; for electrical conductivity: Alternating current cell with electrodes

O=[PH](O)O [phosphonic acid] + O
Conditions | electrical conductivity, 328.15 K [S/m] | electrical conductivity, 338.15 K [S/m] | mass density, 318.15 K [kg/m3] | mass density, 328.15 K [kg/m3] | mass density, 338.15 K [kg/m3] | viscosity, 318.15 K [mPa·s] | viscosity, 328.15 K [mPa·s] | viscosity, 338.15 K [mPa·s]
x1 = 0.0122 | 8.38 | 8.4 | 1013.66 | 1009.46 | 1001.4 | – | 0.529 | 0.464
x1 = 0.0215 | 12.1 | 12.2 | 1030.98 | 1026.28 | 1018.77 | – | 0.567 | 0.49
x1 = 0.0299 | 15.3 | 15.6 | 1045.97 | 1041.02 | 1033.72 | – | 0.617 | 0.531
x1 = 0.0403 | 19.6 | 20.3 | 1063.78 | 1058.55 | 1051.48 | – | – | –
x1 = 0.0451 | – | – | 1072.47 | 1066.53 | 1060.26 | – | – | –
x1 = 0.0484 | 21.9 | 22.9 | 1077.26 | 1071.83 | 1064.9 | – | – | –
x1 = 0.0541 | 23.5 | 24.2 | 1086.62 | 1081.05 | 1074.21 | – | – | –
x1 = 0.0682 | 26.5 | 27.7 | 1108.74 | 1102.88 | 1096.19 | – | – | –
x1 = 0.0704 | 26.9 | 28.2 | 1112.04 | 1106.07 | 1099.46 | – | 0.866 | 0.749
x1 = 0.0799 | 28.6 | 30 | 1126.27 | 1120.18 | 1113.58 | – | – | –
x1 = 0.0832 | – | – | 1130.94 | 1124.84 | 1118.32 | – | – | –
x1 = 0.1011 | 31 | 32.9 | 1156.21 | 1149.89 | 1143.23 | – | 1.07 | 0.922
x1 = 0.1335 | 33.3 | 35.3 | 1198.05 | 1191.35 | 1184.38 | 1.66 | 1.35 | 1.16
x1 = 0.1689 | 33.8 | 35.5 | 1238.7 | 1231.63 | 1224.52 | – | – | –
x1 = 0.1909 | 33.3 | 35 | 1261.54 | 1254.36 | 1246.94 | – | – | –
x1 = 0.197 | 33.2 | 34.9 | 1267.22 | 1259.95 | 1252.51 | – | – | –
x1 = 0.2154 | 32.5 | 34.1 | 1285.38 | 1277.98 | 1270.41 | 2.68 | 2.2 | 1.88
x1 = 0.2524 | 31.3 | 33.5 | 1317.07 | 1309.72 | 1301.38 | 3.27 | 2.65 | 2.25
x1 = 0.292 | 30.2 | 32.4 | 1347.86 | 1340.42 | 1331.63 | 3.9 | 3.14 | 2.66
x1 = 0.3959 | 24.1 | 25.9 | 1418.01 | 1409.83 | 1401.65 | – | – | –
